In patent US10624897B2, “Chlorobenzene substituted azaaryl compounds” (TAIPEI MEDICAL UNIVERSITY, priority 2015, dated 2020):

Tests used:
Assay in all cases: Kinase binding assay (Kd)
PDGFRB = biological target: T1, PDGFRB (Homo sapiens, UniProt P09619)
T1 construct: made in house; host or cells: E. coli BL21-derived host (T7 phage) or HEK-293
Procedure: (§1) Kinase assays. For most assays, kinase-tagged T7 phage strains were prepared in an E. coli host derived from the BL21 strain. E. coli were grown to log-phase and infected with T7 phage and incubated with shaking at 32° C. until lysis. The lysates were centrifuged and filtered to remove cell debris. The remaining kinases were produced in HEK-293 cells and subsequently tagged with DNA for qPCR detection. […] The liganded beads were blocked with excess biotin and washed with blocking buffer (SeaBlock (Pierce), 1% BSA, 0.05% Tween 20, 1 mM DTT) to remove unbound ligand and to reduce non-specific binding. […] All reactions were performed in polystyrene 96-well plates in a final volume of 0.135 ml. […] The kinase concentration in the eluates was measured by qPCR.
(§2) An 11-point 3-fold serial dilution of each test compound was prepared in 100% DMSO at 100× final test concentration and subsequently diluted to 1× in the assay (final DMSO concentration=1%). Most Kds were determined using a compound top concentration=30,000 nM.
(§3) Binding constants (Kds) were calculated with a standard dose-response curve using the Hill equation: […]
(§4) The Hill Slope was set to −1. Curves were fitted using a non-linear least square fit with the Levenberg-Marquardt algorithm.

PIK3CG = biological target: T2, PIK3CG (Homo sapiens, UniProt P48736)
T2 construct: made in house; host or cells: E. coli BL21-derived host (T7 phage) for most kinases, HEK-293 for the rest
Procedure: as §1, §2, §3, §4

MLK1 = biological target: T3, MLK1 (Homo sapiens, UniProt P80192)
T3 construct: made in house; host or cells: E. coli BL21-derived host (T7 phage) for most kinases, HEK-293 for the rest
Procedure: as §1, §2, §3, §4

PIM1 = biological target: T4, PIM1 (Homo sapiens, UniProt P11309)
T4 construct: made in house; host or cells: E. coli BL21-derived host (T7 phage) for most kinases, HEK-293 for the rest
Procedure: as §1, §2, §3, §4

ERBB4 = biological target: T5, ERBB4 (Homo sapiens, UniProt Q15303)
T5 construct: made in house; host or cells: E. coli BL21-derived host (T7 phage) for most kinases, HEK-293 for the rest
Procedure: as §1, §2, §3, §4

TGFBR1 = biological target: T6, TGFBR1 (Homo sapiens, UniProt P36897)
T6 construct: made in house; host or cells: E. coli BL21-derived host (T7 phage) or HEK-293
Procedure: as §1, §2, §3, §4

CDK3 = biological target: T7, CDK3 (Homo sapiens, UniProt Q00526)
T7 construct: made in house; host or cells: E. coli BL21-derived host (T7 phage) or HEK-293
Procedure: as §1, §2, §3, §4

IKK-beta = biological target: T8, IKK-beta (Homo sapiens, UniProt O14920)
T8 construct: made in house; host or cells: E. coli BL21-derived host (T7 phage) for most kinases, HEK-293 for the rest
Procedure: as §1, §2, §3, §4

MEK1 = biological target: T9, MEK1 (Homo sapiens, UniProt Q02750)
T9 construct: made in house; host or cells: E. coli BL21-derived host (T7 phage) for most kinases, HEK-293 for the rest
Procedure: as §1, §2, §3, §4

EGFR = biological target: T10, EGFR (Homo sapiens, UniProt P00533)
T10 construct: made in house; host or cells: E. coli BL21-derived host (T7 phage) or HEK-293
Procedure: as §1, §2, §3, §4

IKK-alpha = biological target: T11, IKK-alpha (Homo sapiens, UniProt O15111)
T11 construct: made in house; host or cells: E. coli BL21-derived host (T7 phage) for most kinases, HEK-293 for the rest
Procedure: as §1, §2, §3, §4

RET = biological target: T12, RET (Homo sapiens, UniProt P07949)
T12 construct: made in house; host or cells: E. coli BL21-derived host (T7 phage) or HEK-293
Procedure: as §1, §2, §3, §4

RAF1 = biological target: T13, RAF1 (Homo sapiens, UniProt P04049)
T13 construct: made in house; host or cells: E. coli BL21-derived host (T7 phage) or HEK-293
Procedure: as §1, §2, §3, §4

PIM3 = biological target: T14, PIM3 (Homo sapiens, UniProt Q86V86)
T14 construct: made in house; host or cells: E. coli BL21-derived host (T7 phage) or HEK-293
Procedure: as §1, §2, §3, §4

YANK3 = biological target: T15, YANK3 (Homo sapiens, UniProt Q86UX6)
T15 construct: made in house; host or cells: E. coli BL21-derived host (T7 phage) or HEK-293
Procedure: as §1, §2, §3, §4

ZAP70 = biological target: T16, ZAP70 (Homo sapiens, UniProt P43403)
T16 construct: made in house; host or cells: E. coli BL21-derived host (T7 phage) or HEK-293
Procedure: as §1, §2, §3, §4

IGF1R = biological target: T17, IGF1R (Homo sapiens, UniProt P08069)
T17 construct: made in house; host or cells: E. coli BL21-derived host (T7 phage) for most kinases, HEK-293 for the rest
Procedure: as §1, §2, §3, §4

FAK = biological target: T18, FAK (Homo sapiens, UniProt Q05397)
T18 construct: made in house; host or cells: E. coli BL21-derived host (T7 phage) for most kinases, HEK-293 for the rest
Procedure: as §1, §2, §3, §4

PLK3 = biological target: T19, PLK3 (Homo sapiens, UniProt Q9H4B4)
T19 construct: made in house; host or cells: E. coli BL21-derived host (T7 phage) or HEK-293
Procedure: as §1, §2, §3, §4

SRPK3 = biological target: T20, SRPK3 (Homo sapiens, UniProt Q9UPE1)
T20 construct: made in house; host or cells: E. coli BL21-derived host (T7 phage) or HEK-293
Procedure: as §1, §2, §3, §4

CDK9 = biological target: T21, CDK9 (Homo sapiens, UniProt P50750)
T21 construct: made in house; host or cells: E. coli BL21-derived host (T7 phage) or HEK-293
Procedure: as §1, §2, §3, §4

MKNK2 = biological target: T22, MKNK2 (Homo sapiens, UniProt Q9HBH9)
T22 construct: made in house; host or cells: E. coli BL21-derived host (T7 phage) for most kinases, HEK-293 for the rest
Procedure: as §1, §2, §3, §4

ROCK2 = biological target: T23, ROCK2 (Homo sapiens, UniProt O75116)
T23 construct: made in house; host or cells: E. coli BL21-derived host (T7 phage) or HEK-293
Procedure: as §1, §2, §3, §4

FGFR4 = biological target: T24, FGFR4 (Homo sapiens, UniProt P22455)
T24 construct: made in house; host or cells: E. coli BL21-derived host (T7 phage) or HEK-293
Procedure: as §1, §2, §3, §4

p38-beta = biological target: T25, p38-beta (Homo sapiens, UniProt Q15759)
T25 construct: made in house; host or cells: E. coli BL21-derived host (T7 phage) for most kinases, HEK-293 for the rest
Procedure: as §1, §2, §3, §4

CSF1R = biological target: T26, CSF1R (Homo sapiens, UniProt P07333)
T26 construct: made in house; host or cells: E. coli BL21-derived host (T7 phage) or HEK-293
Procedure: as §1, §2, §3, §4

BTK = biological target: T27, BTK (Homo sapiens, UniProt Q06187)
T27 construct: made in house; host or cells: E. coli BL21-derived host (T7 phage) or HEK-293
Procedure: as §1, §2, §3, §4

AKT1 = biological target: T28, AKT1 (Homo sapiens, UniProt P31749)
T28 construct: made in house; host or cells: E. coli BL21-derived host (T7 phage) or HEK-293
Procedure: as §1, §2, §3, §4

INSR = biological target: T29, INSR (Homo sapiens, UniProt P06213)
T29 construct: made in house; host or cells: E. coli BL21-derived host (T7 phage) for most kinases, HEK-293 for the rest
Procedure: as §1, §2, §3, §4

GSK3B = biological target: T30, GSK3B (Homo sapiens, UniProt P49841)
T30 construct: made in house; host or cells: E. coli BL21-derived host (T7 phage) for most kinases, HEK-293 for the rest
Procedure: as §1, §2, §3, §4

FLT3 = biological target: T31, FLT3 (Homo sapiens, UniProt P36888)
T31 construct: made in house; host or cells: E. coli BL21-derived host (T7 phage) or HEK-293
Procedure: as §1, §2, §3, §4

PIK3CA = biological target: T32, PIK3CA (Homo sapiens, UniProt P42336)
T32 construct: made in house; host or cells: E. coli BL21-derived host (T7 phage) for most kinases, HEK-293 for the rest
Procedure: as §1, §2, §3, §4

FGFR1 = biological target: T33, FGFR1 (Homo sapiens, UniProt P11362)
T33 construct: made in house; host or cells: E. coli BL21-derived host (T7 phage) or HEK-293
Procedure: as §1, §2, §3, §4

MEK2 = biological target: T34, MEK2 (Homo sapiens, UniProt P36507)
T34 construct: made in house; host or cells: E. coli BL21-derived host (T7 phage) for most kinases, HEK-293 for the rest
Procedure: as §1, §2, §3, §4

AURKB = biological target: T35, AURKB (Homo sapiens, UniProt Q96GD4)
T35 construct: made in house; host or cells: E. coli BL21-derived host (T7 phage) or HEK-293
Procedure: as §1, §2, §3, §4

PDGFRA = biological target: T36, PDGFRA (Homo sapiens, UniProt P16234)
T36 construct: made in house; host or cells: E. coli BL21-derived host (T7 phage) for most kinases, HEK-293 for the rest
Procedure: as §1, §2, §3, §4

AXL = biological target: T37, AXL (Homo sapiens, UniProt P30530)
T37 construct: made in house; host or cells: E. coli BL21-derived host (T7 phage) or HEK-293
Procedure: as §1, §2, §3, §4

T7 sequence (Q00526 whole entry): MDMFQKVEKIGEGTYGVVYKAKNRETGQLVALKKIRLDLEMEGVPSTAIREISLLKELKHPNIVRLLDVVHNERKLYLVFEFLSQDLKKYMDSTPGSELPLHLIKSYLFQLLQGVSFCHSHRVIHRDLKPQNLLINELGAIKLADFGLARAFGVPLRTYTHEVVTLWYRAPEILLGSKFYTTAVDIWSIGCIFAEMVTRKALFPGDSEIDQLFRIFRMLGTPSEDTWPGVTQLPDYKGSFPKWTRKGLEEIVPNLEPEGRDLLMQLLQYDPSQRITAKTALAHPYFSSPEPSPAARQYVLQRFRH
T34 sequence (P36507 whole entry): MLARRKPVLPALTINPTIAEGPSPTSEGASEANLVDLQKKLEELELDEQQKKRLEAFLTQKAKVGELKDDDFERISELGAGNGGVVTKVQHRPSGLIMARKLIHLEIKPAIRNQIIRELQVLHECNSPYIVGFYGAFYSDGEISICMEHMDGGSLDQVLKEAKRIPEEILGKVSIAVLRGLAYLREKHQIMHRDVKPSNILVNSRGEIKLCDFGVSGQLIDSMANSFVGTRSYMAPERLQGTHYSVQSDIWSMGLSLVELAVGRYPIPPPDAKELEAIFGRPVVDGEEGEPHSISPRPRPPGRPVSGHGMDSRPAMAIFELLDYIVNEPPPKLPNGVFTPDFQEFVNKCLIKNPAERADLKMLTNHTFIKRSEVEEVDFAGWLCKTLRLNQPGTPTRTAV
T11 sequence (O15111 whole entry): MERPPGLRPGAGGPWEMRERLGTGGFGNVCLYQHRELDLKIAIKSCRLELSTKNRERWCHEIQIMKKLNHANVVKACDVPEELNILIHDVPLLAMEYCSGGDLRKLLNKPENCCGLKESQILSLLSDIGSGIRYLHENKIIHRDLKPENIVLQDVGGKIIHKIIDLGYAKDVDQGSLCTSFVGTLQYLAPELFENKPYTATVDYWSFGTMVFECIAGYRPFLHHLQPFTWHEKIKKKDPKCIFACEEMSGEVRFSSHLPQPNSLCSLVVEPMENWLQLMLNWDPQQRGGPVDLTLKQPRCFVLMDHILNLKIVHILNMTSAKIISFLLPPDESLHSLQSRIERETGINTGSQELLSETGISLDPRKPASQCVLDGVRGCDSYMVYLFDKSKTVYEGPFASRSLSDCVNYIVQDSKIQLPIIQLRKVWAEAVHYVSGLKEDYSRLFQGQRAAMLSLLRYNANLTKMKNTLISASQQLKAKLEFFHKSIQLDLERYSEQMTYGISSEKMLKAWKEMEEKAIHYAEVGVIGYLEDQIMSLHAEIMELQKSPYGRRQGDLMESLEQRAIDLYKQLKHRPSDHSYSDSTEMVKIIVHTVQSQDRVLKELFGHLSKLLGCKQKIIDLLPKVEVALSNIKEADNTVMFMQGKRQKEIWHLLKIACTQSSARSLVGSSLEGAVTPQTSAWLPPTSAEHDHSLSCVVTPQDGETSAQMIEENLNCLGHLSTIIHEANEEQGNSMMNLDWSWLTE
T19 sequence (Q9H4B4 whole entry): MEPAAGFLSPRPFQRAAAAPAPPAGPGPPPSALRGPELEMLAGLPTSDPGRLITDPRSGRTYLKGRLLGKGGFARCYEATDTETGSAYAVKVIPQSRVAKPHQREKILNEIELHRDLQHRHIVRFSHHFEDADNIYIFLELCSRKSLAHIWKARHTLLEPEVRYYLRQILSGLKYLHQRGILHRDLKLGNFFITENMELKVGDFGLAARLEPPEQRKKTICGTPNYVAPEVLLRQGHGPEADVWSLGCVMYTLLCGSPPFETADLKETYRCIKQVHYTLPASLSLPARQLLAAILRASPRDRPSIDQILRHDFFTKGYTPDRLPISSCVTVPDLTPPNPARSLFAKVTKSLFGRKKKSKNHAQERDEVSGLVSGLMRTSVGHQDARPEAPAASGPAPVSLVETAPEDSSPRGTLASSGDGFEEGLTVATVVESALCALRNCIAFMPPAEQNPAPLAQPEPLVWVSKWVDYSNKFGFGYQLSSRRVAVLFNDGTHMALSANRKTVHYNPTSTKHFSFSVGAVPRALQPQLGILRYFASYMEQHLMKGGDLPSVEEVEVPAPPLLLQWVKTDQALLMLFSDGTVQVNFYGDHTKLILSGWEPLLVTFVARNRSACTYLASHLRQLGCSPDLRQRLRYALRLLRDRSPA
T20 sequence (Q9UPE1 whole entry): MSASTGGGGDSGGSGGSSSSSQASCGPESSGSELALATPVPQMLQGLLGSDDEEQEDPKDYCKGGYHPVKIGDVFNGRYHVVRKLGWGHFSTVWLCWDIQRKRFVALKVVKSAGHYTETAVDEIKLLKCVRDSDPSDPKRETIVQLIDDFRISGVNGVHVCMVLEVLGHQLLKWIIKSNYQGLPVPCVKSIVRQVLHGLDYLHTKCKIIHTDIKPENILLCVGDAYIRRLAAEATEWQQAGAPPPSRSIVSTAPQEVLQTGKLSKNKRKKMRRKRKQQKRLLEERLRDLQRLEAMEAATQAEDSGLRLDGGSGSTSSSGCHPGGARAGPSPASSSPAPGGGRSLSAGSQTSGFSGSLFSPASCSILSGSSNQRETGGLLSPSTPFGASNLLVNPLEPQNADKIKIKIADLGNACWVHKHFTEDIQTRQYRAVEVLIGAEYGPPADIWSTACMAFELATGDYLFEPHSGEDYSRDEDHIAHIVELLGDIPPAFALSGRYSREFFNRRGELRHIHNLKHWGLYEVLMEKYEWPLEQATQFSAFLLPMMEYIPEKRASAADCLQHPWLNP
T16 sequence (P43403 whole entry): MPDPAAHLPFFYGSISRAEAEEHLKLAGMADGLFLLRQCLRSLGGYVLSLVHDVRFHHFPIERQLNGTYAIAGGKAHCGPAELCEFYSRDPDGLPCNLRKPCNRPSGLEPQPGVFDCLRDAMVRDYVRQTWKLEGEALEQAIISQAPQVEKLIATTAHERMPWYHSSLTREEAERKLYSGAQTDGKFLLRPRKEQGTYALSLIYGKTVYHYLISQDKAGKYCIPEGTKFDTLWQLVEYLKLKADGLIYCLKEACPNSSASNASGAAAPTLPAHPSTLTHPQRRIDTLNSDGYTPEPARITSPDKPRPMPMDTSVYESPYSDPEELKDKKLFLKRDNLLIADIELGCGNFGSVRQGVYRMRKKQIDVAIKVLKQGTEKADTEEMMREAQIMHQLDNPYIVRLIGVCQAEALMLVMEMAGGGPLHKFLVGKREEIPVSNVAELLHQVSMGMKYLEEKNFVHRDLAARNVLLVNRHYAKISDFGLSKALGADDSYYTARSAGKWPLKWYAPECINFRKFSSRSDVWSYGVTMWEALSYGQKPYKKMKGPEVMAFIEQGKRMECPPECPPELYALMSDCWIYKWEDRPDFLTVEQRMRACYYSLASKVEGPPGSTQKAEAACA
T27 sequence (Q06187 whole entry): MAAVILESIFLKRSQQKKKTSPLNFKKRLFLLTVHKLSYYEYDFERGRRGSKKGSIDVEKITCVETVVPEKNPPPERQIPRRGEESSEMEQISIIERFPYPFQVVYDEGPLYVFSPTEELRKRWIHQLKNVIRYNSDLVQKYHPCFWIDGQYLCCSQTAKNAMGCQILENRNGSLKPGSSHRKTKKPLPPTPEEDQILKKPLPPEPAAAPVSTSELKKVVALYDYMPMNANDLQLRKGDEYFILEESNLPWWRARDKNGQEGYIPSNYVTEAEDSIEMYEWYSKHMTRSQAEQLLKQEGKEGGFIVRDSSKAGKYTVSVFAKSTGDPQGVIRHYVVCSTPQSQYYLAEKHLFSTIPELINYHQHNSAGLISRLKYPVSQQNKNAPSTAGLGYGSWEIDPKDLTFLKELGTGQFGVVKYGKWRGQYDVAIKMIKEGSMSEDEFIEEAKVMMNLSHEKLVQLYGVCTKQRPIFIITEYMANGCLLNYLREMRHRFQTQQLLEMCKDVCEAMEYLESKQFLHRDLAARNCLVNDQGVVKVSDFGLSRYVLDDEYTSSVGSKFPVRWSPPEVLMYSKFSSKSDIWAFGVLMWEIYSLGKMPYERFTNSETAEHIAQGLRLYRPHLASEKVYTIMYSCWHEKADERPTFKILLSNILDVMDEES
T28 sequence (P31749 whole entry): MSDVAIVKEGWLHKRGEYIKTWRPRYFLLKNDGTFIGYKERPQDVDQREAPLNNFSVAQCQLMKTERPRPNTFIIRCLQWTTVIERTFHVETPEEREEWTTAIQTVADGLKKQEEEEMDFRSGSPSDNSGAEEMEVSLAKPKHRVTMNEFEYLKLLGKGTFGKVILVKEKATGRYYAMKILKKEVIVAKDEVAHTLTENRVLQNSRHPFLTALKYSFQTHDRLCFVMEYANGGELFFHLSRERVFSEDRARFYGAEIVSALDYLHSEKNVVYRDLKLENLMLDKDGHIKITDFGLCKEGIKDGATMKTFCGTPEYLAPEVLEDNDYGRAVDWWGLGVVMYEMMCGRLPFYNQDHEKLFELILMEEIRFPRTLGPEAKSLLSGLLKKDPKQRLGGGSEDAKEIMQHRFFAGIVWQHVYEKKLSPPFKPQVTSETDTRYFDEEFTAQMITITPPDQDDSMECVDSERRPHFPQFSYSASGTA
T15 sequence (Q86UX6 whole entry): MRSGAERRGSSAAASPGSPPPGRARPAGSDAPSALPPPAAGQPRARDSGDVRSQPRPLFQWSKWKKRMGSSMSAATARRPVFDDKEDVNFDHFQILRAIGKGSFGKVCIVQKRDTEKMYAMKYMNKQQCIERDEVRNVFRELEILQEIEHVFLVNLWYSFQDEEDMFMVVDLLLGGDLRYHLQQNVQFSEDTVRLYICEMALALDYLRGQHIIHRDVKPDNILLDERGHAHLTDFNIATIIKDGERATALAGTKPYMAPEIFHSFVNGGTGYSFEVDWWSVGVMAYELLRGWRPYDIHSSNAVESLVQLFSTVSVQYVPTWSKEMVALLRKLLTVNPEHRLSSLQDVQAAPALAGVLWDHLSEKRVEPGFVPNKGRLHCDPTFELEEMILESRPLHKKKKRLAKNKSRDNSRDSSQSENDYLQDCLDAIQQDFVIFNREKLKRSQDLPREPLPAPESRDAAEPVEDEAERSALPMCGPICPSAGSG

Kd (PDGFRB): 0.68 µM
Kd (PIK3CG): > 10 µM
Kd (MLK1): > 10 µM
Kd (PIM1): > 10 µM
Kd (ERBB4): > 10 µM
Kd (TGFBR1): > 10 µM
Kd (CDK3): > 10 µM
Kd (IKK-beta): > 10 µM
Kd (MEK1): > 10 µM
Kd (EGFR): > 10 µM
Kd (IKK-alpha): > 10 µM
Kd (RET): > 10 µM
Kd (RAF1): > 10 µM
Kd (PIM3): > 10 µM
Kd (YANK3): > 10 µM
Kd (ZAP70): > 10 µM
Kd (IGF1R): > 10 µM
Kd (FAK): > 10 µM
Kd (PLK3): > 10 µM
Kd (SRPK3): > 10 µM
Kd (CDK9): > 10 µM
Kd (MKNK2): > 10 µM
Kd (ROCK2): > 10 µM
Kd (FGFR4): 7.5 µM
Kd (p38-beta): > 10 µM
Kd (CSF1R): 0.34 µM
Kd (BTK): > 10 µM
Kd (AKT1): > 10 µM
Kd (INSR): > 10 µM
Kd (GSK3B): > 10 µM
Kd (FLT3): 1.3 µM
Kd (PIK3CA): > 10 µM
Kd (FGFR1): 0.13 µM
Kd (MEK2): > 10 µM
Kd (AURKB): > 10 µM
Kd (PDGFRA): > 10 µM
Kd (AXL): > 10 µM
SMILES: CCN1CCN(c2ccc(Nc3ncnc(N(C)C(=O)Nc4c(Cl)c(OC)c(Cl)c(OC)c4Cl)n3)cc2)CC1 [MPT0L145, 1-(4-((4-(4-ethylpiperazin-1-yl)phenyl)amino)-1,3,5-triazin-2-yl)-1-methyl-3-(2,4,6-trichloro-3,5-dimethoxyphenyl)urea]
